Reference: patent US20090061452A1, “Polymorphisms in the human genes for OCT 1 and their use in diagnostic and therapeutic applications” (Epidauros Biotechnologie AG, priority 2002, published 2009)
Where a chain is given by its changes, count along the chain named. Entries after “also recorded” stand apart in the source; their conditions may differ.

Legend:
OCT1 mutant Phe160Leu = target: T1, OCT1 mutant Phe160Leu (Homo sapiens, UniProt O15245); assay: Cyanine863-inhibitable uptake in Xenopus oocytes expressing OCT1 mutant Phe160Leu; type: cell-based
T1 construct: expressed in transfected cells; host or cells: Xenopus laevis oocytes injected with cRNA transcribed from the pOG1 vector
T1 sequence (O15245 1-554): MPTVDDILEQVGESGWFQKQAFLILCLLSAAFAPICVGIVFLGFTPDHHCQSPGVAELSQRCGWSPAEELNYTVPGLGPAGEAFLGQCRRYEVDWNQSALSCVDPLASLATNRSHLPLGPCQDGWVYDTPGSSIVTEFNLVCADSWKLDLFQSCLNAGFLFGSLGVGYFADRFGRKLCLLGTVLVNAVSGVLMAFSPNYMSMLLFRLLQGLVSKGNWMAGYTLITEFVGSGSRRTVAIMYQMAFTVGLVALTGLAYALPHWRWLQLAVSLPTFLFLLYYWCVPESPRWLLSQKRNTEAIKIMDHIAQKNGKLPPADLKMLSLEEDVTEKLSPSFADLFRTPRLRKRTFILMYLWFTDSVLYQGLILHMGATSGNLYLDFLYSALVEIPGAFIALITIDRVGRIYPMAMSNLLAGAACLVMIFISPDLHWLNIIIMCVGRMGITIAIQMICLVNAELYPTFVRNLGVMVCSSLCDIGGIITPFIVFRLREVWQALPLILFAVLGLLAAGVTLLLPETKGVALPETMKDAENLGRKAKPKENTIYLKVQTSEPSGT

OCT1 mutant Met420del = target: T2, OCT1 mutant Met420del (Homo sapiens, UniProt O15245, DEL420-420); assay: Cyanine863-inhibitable uptake in Xenopus oocytes expressing OCT1 mutant Met420del; type: cell-based
T2 construct: expressed in transfected cells; host or cells: Xenopus laevis oocytes injected with cRNA transcribed from the pOG1 vector
T2 sequence (O15245 with tags, fused parts or gaps DEL420-420): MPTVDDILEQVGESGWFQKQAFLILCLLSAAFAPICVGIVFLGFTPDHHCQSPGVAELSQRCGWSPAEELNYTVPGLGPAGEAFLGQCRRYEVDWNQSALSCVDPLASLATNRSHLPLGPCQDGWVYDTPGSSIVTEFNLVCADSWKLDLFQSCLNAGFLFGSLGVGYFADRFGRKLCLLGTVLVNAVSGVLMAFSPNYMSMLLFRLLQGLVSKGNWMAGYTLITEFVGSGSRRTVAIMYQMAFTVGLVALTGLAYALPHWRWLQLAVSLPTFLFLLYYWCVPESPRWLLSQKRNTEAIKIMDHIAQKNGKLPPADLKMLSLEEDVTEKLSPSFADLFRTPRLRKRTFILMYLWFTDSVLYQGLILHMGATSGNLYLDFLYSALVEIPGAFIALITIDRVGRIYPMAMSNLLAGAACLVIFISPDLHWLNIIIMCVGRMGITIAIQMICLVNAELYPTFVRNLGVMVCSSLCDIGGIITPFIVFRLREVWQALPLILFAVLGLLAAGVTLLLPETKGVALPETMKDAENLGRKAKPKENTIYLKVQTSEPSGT

OCT1 mutant Arg61Cys = target: T3, OCT1 mutant Arg61Cys (Homo sapiens, UniProt O15245, R61C); assay: Cyanine863-inhibitable uptake in Xenopus oocytes expressing OCT1 mutant Arg61Cys; type: cell-based; conditions: 0.1 μM [3H]MPP, 30 min
T3 construct: expressed in transfected cells; host or cells: Xenopus laevis oocytes injected with cRNA transcribed from the pOG1 vector
T3 sequence (O15245 1-554 R61C): T1 sequence (O15245 1-554) with R61C

OCT1 mutant Gly401Ser = target: T4, OCT1 mutant Gly401Ser (Homo sapiens, UniProt O15245, G401S); assay: Cyanine863-inhibitable uptake in Xenopus oocytes expressing OCT1 mutant Gly401Ser
T4 sequence (O15245 1-554 G401S): T1 sequence (O15245 1-554) with G401S
Protocol: (§1) OCT1 wt and OCT1 mutants were expressed in Xenopus oocytes and analyzed side-by-side. Cyanine863-inhibitable uptake of radioactively labeled organic cations was measured over 30 min. a) Uptake of 0.1 μM [^3H]MPP by different mutants in comparison to OCT1. […] In different batches of oocytes, the cyanine-863-inhibited uptake of 0.1 μM [^3H]MPP expressed by OCT1 wt varied between 0.9 and 1.8 μmol×oocyte^−1×30 min^−1. […] MPP uptake was measured at 9 different MPP concentrations and K0.5 values were determined by fitting the Hill equation to the data. […] Mean values±SD of three experiments are presented. *P<0.05, **P<0.01, ***P<0.001.
(§2) After defolliculation, the oocytes were injected with 10 ng/oocycte of the respective cRNAs. […] Oocytes were incubated for 30 min with the indicated substrate concentrations in the absence or presence of 100 μM of the inhibitor cyanine863. The mutants were compared with the OCT1 wt in side-by-side experiments using oocytes from the same batch (Arndt, Am J. Physiol. Renal Physiol. 281 (2001), F454-468). Each data point corresponded to 8-10 oocytes. K0.5 values were estimated by fitting the Hill equation to the data. Mean values±SD are presented. Significance of differences was tested by unpaired Student t-tests.

OCT1 mutant Cys88Arg = target: T5, OCT1 mutant Cys88Arg (Homo sapiens, UniProt O15245, C88R); assay: Cyanine863-inhibitable uptake in Xenopus oocytes expressing OCT1 mutant Cys88Arg
T5 sequence (O15245 1-554 C88R): T1 sequence (O15245 1-554) with C88R
Protocol: as §1, §2

[1] = Hill equation fit, 9 MPP concentrations

SMILES | uptake compared to OCT1 wt (OCT1 mutant Phe160Leu; 0.1 μM [3H]MPP, 30 min) | half maximal concentration for substrate activation (K0.5) compared to wild-type (OCT1 mutant Phe160Leu; [1]) | maximal expressed transport rates compared to wild-type (OCT1 mutant Phe160Leu; data not shown) | reduced Vmax value compared to OCT1 wt (OCT1 mutant Phe160Leu; n=3) | uptake compared to OCT1 wt (OCT1 mutant Met420del; 0.1 μM [3H]MPP, 30 min) | half maximal concentration for substrate activation (K0.5) compared to wild-type (OCT1 mutant Met420del; [1]) | maximal expressed transport rates compared to wild-type (OCT1 mutant Met420del; data not shown) | uptake reduced by (compared to OCT1 wt) (OCT1 mutant Arg61Cys) | uptake reduced by (compared to OCT1 wt) (OCT1 mutant Gly401Ser; 0.1 μM [3H]MPP, 30 min) | uptake reduced by (compared to OCT1 wt) (OCT1 mutant Cys88Arg; 0.1 μM [3H]MPP, 30 min) | uptake compared to wt, relative to reduction of MPP uptake (OCT1 mutant Gly401Ser; 1 μM [3H]serotonin) | uptake compared to wt, relative to reduction of MPP uptake (OCT1 mutant Cys88Arg; 1 μM [3H]serotonin)
C[n+]1ccc(-c2ccccc2)cc1 [MPP, 1-methyl-4-phenylpyridinium] | not significantly different from OCT1 wt | similar; also recorded: identical to wild-type | identical to wild-type | 32±16% | not significantly different from OCT1 wt | identical to wild-type | identical to wild-type | 70% | more than 98% | more than 98% |  | 
NCCc1c[nH]c2ccc(O)cc12 [serotonin] |  |  |  |  |  |  |  |  |  |  | significantly less reduced | significantly less reduced
